Data from PubChem BioAssay AID2060484 (Molecular Pharmacology Branch, DTP, NCI, 2025).

Test system: SUM149PT spheroids with HUVEC/MSC, viability
Experiment: Anticancer human tumor SUM149PT cell line growth inhibition [GQUAD];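 also: spheroids exposed to drugs for seven days before readout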;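 as to viability, T/C: percent viability relative to DMSO vehicle control taken as 100%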
Details: for IC50: curve of first compound; for viability, T/C: stronger effect = lower value
How it was run: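 Tumor cells were grown as complex spheroids with HUVEC endothelial cells and mesenchymal stem cells as stroma. G-quadruplex stabilizers were combined with targeted agents over half-log dilutions from near the clinical Cmax, or from 10 microM.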

[1] = second compound 0.0316 µM, first compound 0.0316 µM
[2] = second compound 0.0316 µM, first compound 0.1 µM
[3] = second compound 0.0316 µM, first compound 0.316 µM
[4] = second compound 0.0316 µM, first compound 1 µM
[5] = second compound 0.0316 µM, first compound 3.16 µM
[6] = second compound 0.0316 µM, first compound 10 µM
[7] = second compound 0.1 µM, first compound 0.0316 µM
[8] = second compound 0.1 µM, first compound 0.1 µM
[9] = second compound 0.1 µM, first compound 0.316 µM
[10] = second compound 0.1 µM, first compound 1 µM
[11] = second compound 0.1 µM, first compound 3.16 µM
[12] = second compound 0.1 µM, first compound 10 µM
[13] = second compound 0.316 µM, first compound 0.0316 µM
[14] = second compound 0.316 µM, first compound 0.1 µM
[15] = second compound 0.316 µM, first compound 0.316 µM
[16] = second compound 0.316 µM, first compound 1 µM
[17] = second compound 0.316 µM, first compound 3.16 µM
[18] = second compound 0.316 µM, first compound 10 µM
[19] = second compound 1 µM, first compound 0.0316 µM
[20] = second compound 1 µM, first compound 0.1 µM
[21] = second compound 1 µM, first compound 0.316 µM
[22] = second compound 1 µM, first compound 1 µM
[23] = second compound 1 µM, first compound 3.16 µM
[24] = second compound 1 µM, first compound 10 µM
[25] = second compound 3.16 µM, first compound 0.0316 µM
[26] = second compound 3.16 µM, first compound 0.1 µM
[27] = second compound 3.16 µM, first compound 0.316 µM
[28] = second compound 3.16 µM, first compound 1 µM
[29] = second compound 3.16 µM, first compound 3.16 µM
[30] = second compound 3.16 µM, first compound 10 µM
[31] = second compound 10 µM, first compound 0.0316 µM
[32] = second compound 10 µM, first compound 0.1 µM
[33] = second compound 10 µM, first compound 0.316 µM
[34] = second compound 10 µM, first compound 1 µM
[35] = second compound 10 µM, first compound 3.16 µM
[36] = second compound 10 µM, first compound 10 µM

## CC(C)(O)C1CCC(Nc2ccc3ncc(-c4cccc(C(F)(F)F)c4)n3n2)CC1 (stereo not drawn) + CN(C)c1ccc(Nc2c3ccc(NC(=O)CCN4CCCC4)cc3nc3cc(NC(=O)CCN4CCCC4)ccc23)cc1
Second compound 0.0316 µM
  IC50: > 10000 nM
Second compound 0.1 µM
  IC50: > 10000 nM
Second compound 0.316 µM
  IC50: 1760 nM
Second compound 1 µM
  IC50: 1550 nM
Second compound 3.16 µM
  IC50: 1250 nM
Second compound 10 µM
  IC50: 789 nM
[1]
  viability, T/C: 98.7%
[2]
  viability, T/C: 84.6%
[3]
  viability, T/C: 75%
[4]
  viability, T/C: 61.5%
[5]
  viability, T/C: 53.6%
[6]
  viability, T/C: 54.2%
[7]
  viability, T/C: 102%
[8]
  viability, T/C: 92.8%
[9]
  viability, T/C: 77.8%
[10]
  viability, T/C: 58%
[11]
  viability, T/C: 49.1%
[12]
  viability, T/C: 54.3%
[13]
  viability, T/C: 86.4%
[14]
  viability, T/C: 89.2%
[15]
  viability, T/C: 76.5%
[16]
  viability, T/C: 52.8%
[17]
  viability, T/C: 44.7%
[18]
  viability, T/C: 50%
[19]
  viability, T/C: 89.6%
[20]
  viability, T/C: 82%
[21]
  viability, T/C: 78.2%
[22]
  viability, T/C: 57.3%
[23]
  viability, T/C: 35.9%
[24]
  viability, T/C: 42.2%
[25]
  viability, T/C: 81.6%
[26]
  viability, T/C: 78.6%
[27]
  viability, T/C: 74.7%
[28]
  viability, T/C: 54.1%
[29]
  viability, T/C: 33.8%
[30]
  viability, T/C: 37.6%
[31]
  viability, T/C: 78.2%
[32]
  viability, T/C: 73.1%
[33]
  viability, T/C: 66.7%
[34]
  viability, T/C: 47%
[35]
  viability, T/C: 20.9%
[36]
  viability, T/C: 18.3%

## CCCS(=O)(=O)Nc1ccc(F)c(C(=O)c2c[nH]c3ncc(-c4ccc(Cl)cc4)cc23)c1F + CN(C)c1ccc(Nc2c3ccc(NC(=O)CCN4CCCC4)cc3nc3cc(NC(=O)CCN4CCCC4)ccc23)cc1
Second compound 0.0316 µM
  IC50: 7630 nM
Second compound 0.1 µM
  IC50: 7280 nM
Second compound 0.316 µM
  IC50: 7790 nM
Second compound 1 µM
  IC50: 4180 nM
Second compound 3.16 µM
  IC50: 3090 nM
Second compound 10 µM
  IC50: 2400 nM
[1]
  viability, T/C: 108%
[2]
  viability, T/C: 91.9%
[3]
  viability, T/C: 103%
[4]
  viability, T/C: 98.1%
[5]
  viability, T/C: 74.5%
[6]
  viability, T/C: 42.4%
[7]
  viability, T/C: 95.7%
[8]
  viability, T/C: 103%
[9]
  viability, T/C: 102%
[10]
  viability, T/C: 100%
[11]
  viability, T/C: 76.3%
[12]
  viability, T/C: 40%
[13]
  viability, T/C: 96.4%
[14]
  viability, T/C: 96.2%
[15]
  viability, T/C: 96.4%
[16]
  viability, T/C: 90%
[17]
  viability, T/C: 67%
[18]
  viability, T/C: 45.3%
[19]
  viability, T/C: 92.2%
[20]
  viability, T/C: 84.3%
[21]
  viability, T/C: 91%
[22]
  viability, T/C: 89.7%
[23]
  viability, T/C: 54.6%
[24]
  viability, T/C: 35.4%
[25]
  viability, T/C: 83.2%
[26]
  viability, T/C: 89.6%
[27]
  viability, T/C: 86.4%
[28]
  viability, T/C: 81.7%
[29]
  viability, T/C: 49.3%
[30]
  viability, T/C: 24%
[31]
  viability, T/C: 84.8%
[32]
  viability, T/C: 80.4%
[33]
  viability, T/C: 89.6%
[34]
  viability, T/C: 71.1%
[35]
  viability, T/C: 43.2%
[36]
  viability, T/C: 11.9%

## Cc1[nH]c2ccccc2c1CCNCc1ccc(/C=C/C(=O)NO)cc1 + CN(C)c1ccc(Nc2c3ccc(NC(=O)CCN4CCCC4)cc3nc3cc(NC(=O)CCN4CCCC4)ccc23)cc1
Second compound 0.0316 µM
  IC50: 253 nM
Second compound 0.1 µM
  IC50: 237 nM
Second compound 0.316 µM
  IC50: 231 nM
Second compound 1 µM
  IC50: 202 nM
Second compound 3.16 µM
  IC50: 190 nM
Second compound 10 µM
  IC50: 133 nM
Second compound 0.0316 µM, first compound 0.000999 µM
  viability, T/C: 103%
Second compound 0.0316 µM, first compound 0.00316 µM
  viability, T/C: 98%
Second compound 0.0316 µM, first compound 0.00999 µM
  viability, T/C: 96.5%
[1]
  viability, T/C: 102%
Second compound 0.0316 µM, first compound 0.0999 µM
  viability, T/C: 85.4%
[3]
  viability, T/C: 41.5%
Second compound 0.1 µM, first compound 0.000999 µM
  viability, T/C: 97.8%
Second compound 0.1 µM, first compound 0.00316 µM
  viability, T/C: 97.1%
Second compound 0.1 µM, first compound 0.00999 µM
  viability, T/C: 96.6%
[7]
  viability, T/C: 90.7%
Second compound 0.1 µM, first compound 0.0999 µM
  viability, T/C: 87.6%
[9]
  viability, T/C: 37.4%
Second compound 0.316 µM, first compound 0.000999 µM
  viability, T/C: 91.2%
Second compound 0.316 µM, first compound 0.00316 µM
  viability, T/C: 96.8%
Second compound 0.316 µM, first compound 0.00999 µM
  viability, T/C: 88.8%
[13]
  viability, T/C: 91.1%
Second compound 0.316 µM, first compound 0.0999 µM
  viability, T/C: 89.8%
[15]
  viability, T/C: 35.1%
Second compound 1 µM, first compound 0.000999 µM
  viability, T/C: 90.9%
Second compound 1 µM, first compound 0.00316 µM
  viability, T/C: 88.5%
Second compound 1 µM, first compound 0.00999 µM
  viability, T/C: 84.3%
[19]
  viability, T/C: 85.5%
Second compound 1 µM, first compound 0.0999 µM
  viability, T/C: 81.7%
[21]
  viability, T/C: 29.6%
Second compound 3.16 µM, first compound 0.000999 µM
  viability, T/C: 81.6%
Second compound 3.16 µM, first compound 0.00316 µM
  viability, T/C: 88.5%
Second compound 3.16 µM, first compound 0.00999 µM
  viability, T/C: 86.5%
[25]
  viability, T/C: 84.5%
Second compound 3.16 µM, first compound 0.0999 µM
  viability, T/C: 72.5%
[27]
  viability, T/C: 32.1%
Second compound 10 µM, first compound 0.000999 µM
  viability, T/C: 90%
Second compound 10 µM, first compound 0.00316 µM
  viability, T/C: 84.7%
Second compound 10 µM, first compound 0.00999 µM
  viability, T/C: 82.6%
[31]
  viability, T/C: 84.3%
Second compound 10 µM, first compound 0.0999 µM
  viability, T/C: 58%
[33]
  viability, T/C: 25.9%

## O=C(NO)c1cnc(N2CCN(S(=O)(=O)c3ccc4ccccc4c3)CC2)nc1 + CN(C)c1ccc(Nc2c3ccc(NC(=O)CCN4CCCC4)cc3nc3cc(NC(=O)CCN4CCCC4)ccc23)cc1
Second compound 0.0316 µM
  IC50: 325 nM
Second compound 0.1 µM
  IC50: 326 nM
Second compound 0.316 µM
  IC50: 322 nM
Second compound 1 µM
  IC50: 314 nM
Second compound 3.16 µM
  IC50: 335 nM
Second compound 10 µM
  IC50: 261 nM
[1]
  viability, T/C: 108%
[2]
  viability, T/C: 89.4%
[3]
  viability, T/C: 54.2%
[4]
  viability, T/C: 0.96%
[5]
  viability, T/C: 1.31%
[6]
  viability, T/C: 3.07%
[7]
  viability, T/C: 116%
[8]
  viability, T/C: 98.7%
[9]
  viability, T/C: 54%
[10]
  viability, T/C: 0.82%
[11]
  viability, T/C: 1.32%
[12]
  viability, T/C: 2.31%
[13]
  viability, T/C: 104%
[14]
  viability, T/C: 98.1%
[15]
  viability, T/C: 51%
[16]
  viability, T/C: 0.47%
[17]
  viability, T/C: 1.57%
[18]
  viability, T/C: 1.8%
[19]
  viability, T/C: 93%
[20]
  viability, T/C: 96%
[21]
  viability, T/C: 49.7%
[22]
  viability, T/C: 0.55%
[23]
  viability, T/C: 2.23%
[24]
  viability, T/C: 1.4%
[25]
  viability, T/C: 86.6%
[26]
  viability, T/C: 90.9%
[27]
  viability, T/C: 52.6%
[28]
  viability, T/C: 0.33%
[29]
  viability, T/C: 0.17%
[30]
  viability, T/C: 1.59%
[31]
  viability, T/C: 87.6%
[32]
  viability, T/C: 70.2%
[33]
  viability, T/C: 47.4%
[34]
  viability, T/C: 0.97%
[35]
  viability, T/C: 2.45%
[36]
  viability, T/C: 1.01%
